# According to patent publication US20250171438A1 (Agios Pharmaceuticals, Inc., priority 2022, published 2025):
# Molecular target: T1, human PAH with the R408W mutation (Homo sapiens, UniProt P00439, R408W)
# T1 construct: expressed in transfected cells
# T1 sequence (P00439 1-452 R408W): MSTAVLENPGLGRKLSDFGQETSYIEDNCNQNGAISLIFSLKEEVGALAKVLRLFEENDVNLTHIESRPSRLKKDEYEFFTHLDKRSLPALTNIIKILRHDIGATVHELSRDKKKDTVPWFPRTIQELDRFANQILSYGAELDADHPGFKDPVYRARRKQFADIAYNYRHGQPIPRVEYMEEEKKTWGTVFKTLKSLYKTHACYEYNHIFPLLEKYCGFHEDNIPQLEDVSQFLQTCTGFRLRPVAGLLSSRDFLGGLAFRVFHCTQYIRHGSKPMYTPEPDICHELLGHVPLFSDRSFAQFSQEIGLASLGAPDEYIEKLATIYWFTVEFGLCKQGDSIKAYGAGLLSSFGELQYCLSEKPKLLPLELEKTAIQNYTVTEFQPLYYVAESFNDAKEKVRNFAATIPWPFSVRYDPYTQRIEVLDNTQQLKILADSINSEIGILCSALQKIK
# Test: Cell Based Phenylalanine Flux Assay
# Settings: A375 cells expressing human R408W PAH; 24 hrs compound incubation; 13C-Tyrosine by LC-MS; average where tested multiple times; read-out: AC50
row,Compound,AC50 [nM]
1,"O=C(c1nnc(-c2ncccc2F)o1)N1CCc2[nH]cnc2[C@@H]1c1nc2c(F)cccc2s1 [Example 1901, (R)-(4-(4-fluorobenzo[d]thiazol-2-yl)-6,7-dihydro-1H-imidazo[4,5-c]pyridin-5(4H)-yl)(5-(3-fluoropyridin-2-yl)-1,3,4-oxadiazol-2-yl)methanone]",500 to 1000
2,Cn1nc(Br)nc1C(=O)N1CCc2[nH]cnc2[C@H]1c1nc2ccccc2s1 [Example 1977],1000 to 5000
3,O=C(C1CN(c2ncccc2F)C1)N1CCc2[nH]cnc2[C@H]1c1nc2ccccc2s1 [Example 1909],500 to 1000
4,"O=C(c1cnn2cc(-c3ccccn3)ccc12)N1CCc2[nH]cnc2[C@@H]1c1nc2ccccc2s1 [Example 1212, (R)-(4-(benzo[d]thiazol-2-yl)-6,7-dihydro-1H-imidazo[4,5-c]pyridin-5(4H)-yl)(6-(pyridin-2-yl)pyrazolo[1,5-a]pyridin-3-yl)methanone]",> 5000
5,"COc1cccc(CCCC(=O)N2CCc3[nH]cnc3[C@H]2c2nc3ccccc3[nH]2)c1 [Example 919, (S)-1-(4-(1H-benzo[d]imidazol-2-yl)-6,7-dihydro-1H-imidazo[4,5-c]pyridin-5(4H)-yl)-4-(3-methoxyphenyl)butan-1-one]",1000 to 5000
6,"O=C(c1nnc(-c2ccccn2)o1)N1CCc2[nH]cnc2[C@H]1c1nc2ccc(F)cc2s1 [Example 1720, (S)-(4-(6-fluorobenzo[d]thiazol-2-yl)-6,7-dihydro-1H-imidazo[4,5-c]pyridin-5(4H)-yl)(5-(pyridin-2-yl)-1,3,4-oxadiazol-2-yl)methanone]",< 500
7,Cn1nc(C(=O)N2CCc3[nH]cnc3[C@H]2c2nc3ccccc3s2)c2ccccc21 [Example 1525],500 to 1000
8,"O=C(c1conc1C(F)(F)F)N1CCc2[nH]cnc2[C@H]1c1nc2c(F)cccc2s1 [Example 1635, (S)-(4-(4-fluorobenzo[d]thiazol-2-yl)-6,7-dihydro-1H-imidazo[4,5-c]pyridin-5(4H)-yl)(3-(trifluoromethyl)isoxazol-4-yl)methanone]",< 500
9,"O=C(CC1CC1)N1CCc2[nH]cnc2[C@@H]1c1nc2ccccc2[nH]1 [Example 1000, (R)-1-(4-(1H-benzo[d]imidazol-2-yl)-6,7-dihydro-1H-imidazo[4,5-c]pyridin-5(4H)-yl)-2-cyclopropylethanone]",1000 to 5000
10,"CC(C)(O)c1nc(Cl)c(C(=O)N2CCc3[nH]cnc3[C@@H]2c2nc3c(F)cccc3s2)o1 [Example 1936, (R)-(4-chloro-2-(2-hydroxypropan-2-yl)oxazol-5-yl)(4-(4-fluorobenzo[d]thiazol-2-yl)-6,7-dihydro-1H-imidazo[4,5-c]pyridin-5(4H)-yl)methanone]",1000 to 5000
11,"N#Cc1nc(-c2ccccn2)oc1C(=O)N1CCc2[nH]cnc2[C@@H]1c1nc2ccccc2s1 [Example 1713, (R)-5-(4-(benzo[d]thiazol-2-yl)-4,5,6,7-tetrahydro-1H-imidazo[4,5-c]pyridine-5-carbonyl)-2-(pyridin-2-yl)oxazole-4-carbonitrile]",> 5000
12,CC(C)(C)c1ncc(C(=O)N2CCc3[nH]cnc3[C@H]2c2nc3c(F)cccc3s2)o1 [Example 1430],< 500
13,"O=C(c1cnn(C2CC2)c1Cl)N1CCc2[nH]cnc2[C@@H]1c1nc2c(F)cccc2s1 [Example 1970, (R)-(5-chloro-1-cyclopropyl-1H-pyrazol-4-yl)(4-(4-fluorobenzo[d]thiazol-2-yl)-6,7-dihydro-1H-imidazo[4,5-c]pyridin-5(4H)-yl)methanone]",1000 to 5000
14,"CC(C)(O)/C=C/c1nc(C(F)(F)F)c(C(=O)N2CCc3[nH]cnc3[C@@H]2c2nc3ccccc3s2)o1 [Example 1570, (R,E)-(4-(benzo[d]thiazol-2-yl)-6,7-dihydro-1H-imidazo[4,5-c]pyridin-5(4H)-yl)(2-(3-hydroxy-3-methylbut-1-en-1-yl)-4-(trifluoromethyl)oxazol-5-yl)methanone]",< 500
15,"O=C(c1cn[nH]c1Cl)N1CCc2[nH]cnc2[C@@H]1c1nc2c(F)cccc2s1 [Example 1861, (R)-(5-chloro-1H-pyrazol-4-yl)(4-(4-fluorobenzo[d]thiazol-2-yl)-6,7-dihydro-1H-imidazo[4,5-c]pyridin-5(4H)-yl)methanone]",1000 to 5000
16,"O=C(C1CC1(F)F)N1CCc2[nH]cnc2[C@H]1c1nc2ccccc2s1 (single isomer, unassigned) [Example 1288]",500 to 1000
17,O=C(c1ocnc1C(F)F)N1CCc2[nH]cnc2[C@H]1c1nc2ccccc2s1 [Example 1539],< 500
18,O=C(c1nc(Cl)cs1)N1CCc2[nH]cnc2[C@H]1c1nc2ccc(F)cc2s1 [Example 1142],500 to 1000
19,"CC(C)(F)c1nnc(C(=O)N2CCc3[nH]cnc3[C@@H]2c2nc3c(F)cccc3s2)o1 [Example 1835, (R)-(4-(4-fluorobenzo[d]thiazol-2-yl)-6,7-dihydro-1H-imidazo[4,5-c]pyridin-5(4H)-yl)(5-(2-fluoropropan-2-yl)-1,3,4-oxadiazol-2-yl)methanone]",1000 to 5000
20,"O=C(c1cnn2ccc(Cl)cc12)N1CCc2[nH]cnc2[C@@H]1c1nc2c(F)cccc2s1 [Example 1196, (R)-(5-chloropyrazolo[1,5-a]pyridin-3-yl)(4-(4-fluorobenzo[d]thiazol-2-yl)-6,7-dihydro-1H-imidazo[4,5-c]pyridin-5(4H)-yl)methanone]",1000 to 5000
21,O=C(CCC1CCCC1)N1CCc2[nH]cnc2[C@H]1c1nc2ccccc2s1 [Example 1015],500 to 1000
22,Cc1nc(C(C)(C)C)oc1C(=O)N1CCc2[nH]cnc2[C@H]1c1nc2ccccc2s1 [Example 1431],< 500
23,O=C(c1oc(CCN2CC(F)C2)nc1C(F)(F)F)N1CCc2[nH]cnc2[C@H]1c1nc2ccccc2s1 [Example 1575],< 500
24,"CC(C)(O)c1nc(Br)c(C(=O)N2CCc3[nH]cnc3[C@@H]2c2nc3ccccc3s2)o1 [Example 2090, (R)-(4-(benzo[d]thiazol-2-yl)-6,7-dihydro-1H-imidazo[4,5-c]pyridin-5(4H)-yl)(4-bromo-2-(2-hydroxypropan-2-yl)oxazol-5-yl)methanone]",1000 to 5000
25,"O=C(c1cnn2ccccc12)N1CCc2[nH]cnc2[C@@H]1c1nc2cccc(F)c2s1 [Example 1110, (R)-(4-(7-fluorobenzo[d]thiazol-2-yl)-6,7-dihydro-1H-imidazo[4,5-c]pyridin-5(4H)-yl)(pyrazolo[1,5-a]pyridin-3-yl)methanone]",500 to 1000
26,"O=C(c1nnc(-c2ccc(C(F)(F)F)cn2)o1)N1CCc2[nH]cnc2[C@@H]1c1nc2ccccc2s1 [Example 1829, (R)-(4-(benzo[d]thiazol-2-yl)-6,7-dihydro-1H-imidazo[4,5-c]pyridin-5(4H)-yl)(5-(5-(trifluoromethyl)pyridin-2-yl)-1,3,4-oxadiazol-2-yl)methanone]",1000 to 5000
27,"CN(C)CCc1nc(C(F)(F)F)c(C(=O)N2CCCc3[nH]cnc3[C@@H]2c2nc3ccccc3s2)o1 (single isomer, unassigned) [Example 2126]",1000 to 5000

# Same assay, conditions: A375 cells expressing human R408W PAH; 24 hrs with compound; 13C-Tyrosine by LC-MS; average where tested multiple times; read-out: AC50
row,Compound,AC50 [nM]
1,"Cc1cnc(CCC(=O)N2CCc3[nH]cnc3[C@H]2c2nc3ccccc3[nH]2)s1 [(S)-1-(4-(1H-benzo[d]imidazol-2-yl)-1,4,6,7-tetrahydro-5H-imidazo[4,5-c]pyridin-5-yl)-3-(5-methylthiazol-2-yl)propan-1-one]",1000 to 5000
2,O=C(c1cn[nH]c1)N1CCc2nc[nH]c2C1c1nc2c(F)cccc2s1 (stereo not shown),1000 to 5000
3,Cn1cc(-c2cccc(C(=O)N3CCc4[nH]cnc4C3c3nc4ccccc4s3)c2)cn1 (stereo not shown),> 5000
4,O=C(c1oc(C2CCN2)nc1C(F)F)N1CCc2[nH]cnc2C1c1nc2c(F)cccc2s1 (stereo not shown),1000 to 5000
5,Cn1ncc(C(=O)N2CCc3[nH]cnc3C2c2nc3ccccc3s2)n1 (stereo not shown),1000 to 5000
6,O=C(c1nccs1)N1CCc2[nH]cnc2C1c1nc2ccc(Cl)cc2[nH]1 (stereo not shown),1000 to 5000
7,O=C(c1ccn[nH]1)N1CCc2[nH]cnc2C1c1nc2c(F)cccc2s1 (stereo not shown),> 5000
8,O=C(c1cc(CO)n[nH]1)N1CCc2[nH]cnc2C1c1nc2c(F)cccc2s1 (stereo not shown),> 5000
9,O=C(c1n[nH]c2ccccc12)N1CCc2[nH]cnc2C1c1nc2c(F)cccc2s1 (stereo not shown),1000 to 5000
10,CC1(C)CN(C(=O)c2cnco2)C(c2nc3c(F)cccc3s2)c2nc[nH]c21 (stereo not shown),> 5000
11,O=C(Cc1nccs1)N1CCc2[nH]cnc2C1c1nc2ccc(F)cc2[nH]1 (stereo not shown),> 5000
12,"Cc1cnc(C(=O)N2CCc3[nH]cnc3[C@H]2c2nc3ccccc3[nH]2)s1 [(S)-(4-(1H-benzo[d]imidazol-2-yl)-1,4,6,7-tetrahydro-5H-imidazo[4,5-c]pyridin-5-yl)(5-methylthiazol-2-yl)methanone]",1000 to 5000
13,COCCc1ncc(C(=O)N2CC(C)c3[nH]cnc3C2c2nc3ccccc3s2)o1 (stereo not shown),1000 to 5000
14,O=C(c1nc2ccccc2s1)N1CCc2[nH]cnc2C1c1nc2ccccc2[nH]1 (stereo not shown),1000 to 5000
15,O=C(N1CCC(c2ccccc2)C1)N1CCc2[nH]cnc2C1c1nc2ccccc2s1 (stereo not shown),> 5000
16,"O=C(c1n[nH]c2ccccc12)N1CCc2[nH]cnc2[C@H]1c1nc2ccccc2[nH]1 [(S)-(4-(1H-benzo[d]imidazol-2-yl)-1,4,6,7-tetrahydro-5H-imidazo[4,5-c]pyridin-5-yl)(1H-indazol-3-yl)methanone]",> 5000
17,O=C(c1cnn2ccc(Cl)cc12)N1CCc2[nH]cnc2C1c1nc2ccc(Cl)cc2[nH]1 (stereo not shown),1000 to 5000
18,O=C(c1cnn2ccccc12)N1CCc2[nH]cnc2C1c1nc2ccc(Br)cc2s1 (stereo not shown),1000 to 5000
19,Cc1nc(N2CCOCC2)oc1C(=O)N1CCCc2[nH]cnc2C1c1nc2ccccc2s1 (stereo not shown),> 5000
